Assay results from ChEMBL document CHEMBL3832076, “Goodman and Gilman Ed. 10 | The Pharmaceutical Basis of Therapeutics| Table A-II-I: Pharmacokinetic Data” (2001).

What was measured:
[1] = Pharmacokinetic parameters for different drugs following single oral or intravenous administration in healthy subjects.; conditions: human, in vivo, 100 mg
[2] = Pharmacokinetic parameters for different drugs following multiple oral or intravenous administration in healthy subjects.; format: ADME, organism-based; set-up: dose 200 mg/day, route oral; conditions: human, in vivo, dosed compound id 68, dosed compound name IMIPRAMINE HYDROCHLORIDE, regimen Repeated dose, study dosing duration 4 weeks, tissue Plasma

Row | Compound | Vd ([1]; iv) [L/kg] | bioavailability ([1]; iv) [%] | dose excreted ([1]; iv) [%] | half-life ([1]; iv) [h] | Cmax ([2]; po, 200 mg/day) [µg/mL] | Tmax ([2]; dose 200 mg/day, route oral) [h] | Tmax ([1]; im) [h] | bioavailability ([1]; inhaled or intranasal) [%] | clearance ([1]; iv) [L/h/kg] | Cmax ([1]; po, Cmax) [µg/mL]
1 | CN(C)CCCN1c2ccccc2CCc2ccccc21.Cl [IMIPRAMINE HYDROCHLORIDE] | 18 | 42 | 2 | 16 | 0.2 | 2 to 6 |  |  |  | 
2 | NC[C@H]1O[C@H](O[C@H]2[C@H](O)[C@@H](O[C@H]3O[C@H](CO)[C@@H](O)[C@H](N)[C@H]3O)[C@H](N)C[C@@H]2N)[C@H](N)C[C@@H]1O [TOBRAMYCIN] | 0.33 |  | 90 | 2.2 |  |  | 0.3 | 9 | 0.0588 | 4.6
